Data set [1] relates to DCTN1-RET fusion gene-expressing NIH/3T3 cells. Nature of the data set: In vitro cell growth assay, 3-dimensional cell culture, intracellular ATP luminescence (CellTiter-Glo 2.0). The conditions noted are these: for GI50: Mus musculus, NIH3T3. In general terms: ATP-based viability assays read luminescence as a measure of living cells.
In data set [2] the target is T1, phosphorylated RET in DCTN1-RET fusion gene-expressing NIH/3T3 cells (Homo sapiens, UniProt P07949).
T1 construct: expressed in transfected cells; the other entry of the earlier key: Dctn1 (O08788, Dynactin subunit 1)
T1 sequence (P07949 with tags, fused parts or gaps with the stated changes): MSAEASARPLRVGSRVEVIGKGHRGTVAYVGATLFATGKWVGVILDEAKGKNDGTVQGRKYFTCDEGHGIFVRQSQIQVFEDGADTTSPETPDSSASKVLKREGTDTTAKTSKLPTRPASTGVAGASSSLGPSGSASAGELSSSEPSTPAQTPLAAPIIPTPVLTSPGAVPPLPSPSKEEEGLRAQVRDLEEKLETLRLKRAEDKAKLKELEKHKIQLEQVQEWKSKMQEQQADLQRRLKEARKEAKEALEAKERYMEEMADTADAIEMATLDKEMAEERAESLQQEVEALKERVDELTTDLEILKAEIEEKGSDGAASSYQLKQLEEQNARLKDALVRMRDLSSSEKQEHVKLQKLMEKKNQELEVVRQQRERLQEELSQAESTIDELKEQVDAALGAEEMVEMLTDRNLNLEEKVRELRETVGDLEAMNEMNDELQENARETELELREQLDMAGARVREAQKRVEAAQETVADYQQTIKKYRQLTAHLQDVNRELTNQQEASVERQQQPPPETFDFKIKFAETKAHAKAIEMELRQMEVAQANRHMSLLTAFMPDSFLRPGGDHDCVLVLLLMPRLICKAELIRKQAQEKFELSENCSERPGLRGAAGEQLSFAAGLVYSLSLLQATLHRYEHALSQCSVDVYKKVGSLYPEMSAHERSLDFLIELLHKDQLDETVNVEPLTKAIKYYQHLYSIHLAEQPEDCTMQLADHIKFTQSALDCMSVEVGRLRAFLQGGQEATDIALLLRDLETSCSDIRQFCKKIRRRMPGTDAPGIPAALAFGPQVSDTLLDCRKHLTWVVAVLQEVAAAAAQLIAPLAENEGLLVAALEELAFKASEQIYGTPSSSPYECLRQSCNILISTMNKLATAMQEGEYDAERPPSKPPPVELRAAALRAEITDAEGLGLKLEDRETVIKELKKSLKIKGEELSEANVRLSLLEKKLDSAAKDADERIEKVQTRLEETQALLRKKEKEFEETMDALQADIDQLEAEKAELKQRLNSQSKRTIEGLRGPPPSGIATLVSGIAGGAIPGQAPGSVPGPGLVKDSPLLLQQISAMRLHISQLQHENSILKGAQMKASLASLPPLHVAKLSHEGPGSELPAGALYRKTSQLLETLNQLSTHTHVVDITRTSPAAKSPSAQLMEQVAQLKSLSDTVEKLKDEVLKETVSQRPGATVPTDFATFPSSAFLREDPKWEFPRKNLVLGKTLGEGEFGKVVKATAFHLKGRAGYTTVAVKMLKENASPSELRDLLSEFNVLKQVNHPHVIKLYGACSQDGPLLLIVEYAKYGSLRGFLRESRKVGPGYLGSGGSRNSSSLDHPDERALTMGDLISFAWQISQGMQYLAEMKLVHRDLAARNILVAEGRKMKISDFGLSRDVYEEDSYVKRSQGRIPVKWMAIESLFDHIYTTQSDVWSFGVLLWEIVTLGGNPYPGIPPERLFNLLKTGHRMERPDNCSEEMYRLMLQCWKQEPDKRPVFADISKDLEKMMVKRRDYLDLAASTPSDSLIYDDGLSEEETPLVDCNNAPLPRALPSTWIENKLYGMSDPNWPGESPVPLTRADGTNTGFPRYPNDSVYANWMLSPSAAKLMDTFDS
Description: Inhibition of RET phosphorylation in DCTN1-RET fusion gene-expressing cells (western blotting). Format: cell-based. The settings on record: 1000, 100 and 10 nmol/L, 1 hour incubation, FIG. 9. How it is done:
The expression of DCTN1-RET fusion protein in the obtained DCTN1-RET fusion gene-expressing NIH/3T3 cells was confirmed by western blotting. Specifically, the medium was removed from the culture flask, followed by washing with PBS once. Sample Diluent Concentrate 2 (R&D Systems) containing a phosphatase inhibitor (Roche) and a protease inhibitor (Roche) was added to the culture flask, and the cell lysate was collected with a scraper. From the collected cell lysate, a protein sample was obtained by centrifugation. The protein sample was subjected to protein determination, and the protein concentration was adjusted to a prescribed concentration. […] After the membrane was washed with TBS-T, the protein was detected using a SuperSignal West Dura Extended Duration Substrate (Thermo Fisher) with an Amersham Imager 600 lumino image analyzer (GE Healthcare). The molecular weight of the detected protein was confirmed with Precision Plus Protein Kaleidoscope Prestained Protein Standards (Bio-Rad). As shown in FIG. 4a) and 4b), endogenous RET (150 and 175 kDa) was not detected when the anti-pRET antibody or the anti-RET antibody was used. […] Additionally, as shown in FIG. 4c), endogenous DCTN1 was detected at around 150 kDa in the use of the anti-DCTN1 antibody. […]

The test system of data set [3] is DCTN1-RET fusion protein. Description: Inhibition of DCTN1-RET fusion protein expression by siRNA (western blotting). Format: cell-based, human. The conditions noted are these: siRNA treatment overnight, DCTN1-RET fusion gene-expressing NIH/3T3 cells, FIG. 7. In general terms: A western blot detects proteins with antibodies after separation by electrophoresis.
The subject of data set [4] is DCTN1-RET fusion gene-expressing NIH/3T3 cells. Nature of the data set: Cell growth inhibitory effect of siRNA, 3-dimensional cell culture. It is filed as cell-based, mouse. The conditions noted are these: 3-dimensional cell culture after siRNA treatment; no treatment 4.9 times, negative control siRNA 3.6 times; FIG. 8. Here is the method: NIH/3T3 cells grow well under 2-dimensional cell culture conditions, but barely grow under 3-dimensional cell culture conditions. However, NIH/3T3 cells are also known to grow under 3-dimensional cell culture conditions when an oncogene is expressed in the cells. Thus, whether the DCTN1-RET fusion gene is an oncogene was confirmed using this character. DCTN1-RET fusion gene-expressing NIH/3T3 cells and NIH/3T3 cells were cultured at 37° C. in 5% CO2 in a 2-dimensional cell culture; and collected with trypsin, followed by counting the number of cells. To perform a 3-dimensional cell culture, a medium for 3-dimensional cell culture was prepared using an FCeM-series Preparation Kit (Nissan Chemical Industries, Ltd.), D-MEM (high glucose) (containing L-glutamine, phenol red, sodium pyruvate, and 1500 mg/L sodium hydrogen carbonate) (Wako), and newborn calf serum (NBCS) (Gibco). […] The day following seeding (day 1) and after 8 days from seeding (day 8), the luminescence level (counts per second: cps) was measured using a detection reagent for intracellular ATP luminescence (CellTiter-Glo 2.0 reagent, Promega) with a luminometer (EnSpire, PerkinElmer), and the result was determined to be the indicator for viable cell count. The cell growth rate was then calculated from the measurement result on day 1 and the measurement result on day 8 (N=3). […]
Subsequently, to confirm a cell growth inhibitory effect, cells were collected with trypsin from the wells without treatment and wells treated with siRNA, and the number of cells was counted. A 3-dimensional cell culture was then performed in the same manner as in Example 5, and on the day seeding was performed (day 0) and after 4 days from seeding (day 4), the number of viable cells was counted in the same manner as in Example 5. The growth rate of the cells was calculated from the measurement result on day 0 and the measurement result on day 4.

Where only a bound is given, the exact number is not on record here.

`CCc1cc2c(cc1N1CCC(N3CCOCC3)CC1)C(C)(C)c1[nH]c3cc(C#N)ccc3c1C2=O` [Alectinib]: in data set [1], the GI50 (in general, the concentration giving 50% growth inhibition) is above 1000 nM.
The compound `COc1cc2nccc(Oc3ccc(NC(=O)C4(C(=O)Nc5ccc(F)cc5)CC4)cc3)c2cc1OC` [Cabozantinib] showed a GI50 in data set [1] of 91.1 nM.
Same read-out and setting: under `COCc1ccc(NC(=O)c2c(C#CCN3CCOCC3)n(C3(C)CC3)c3ncnc(N)c23)cc1` [Compound 6, 4-amino-N-[4-(methoxymethyl)phenyl]-7-(1-methylcyclopropyl)-6-(3-morpholinopro-1-pyn-1-yl)-7H-pyrrolo[2,3-d]pyrimidine-5-carboxamide] stands 3.6 nM.
For `COc1cc2nccc(Oc3ccc(NC(=O)NC4CC4)c(Cl)c3)c2cc1C(N)=O` [Lenvatinib], the “phosphorylated RET levels” value in data set [2] was “notably decreased”. The compound also came in with a GI50 in data set [1] of 50.3 nM. Besides, in data set [1] (result in words, as shown in Table 7), the “growth of DCTN1-RET fusion gene-expressing NIH/3T3 cells” value is given as “inhibited the growth”.
As to `COc1cc2c(Nc3ccc(Br)cc3F)ncnc2cc1OCC1CCN(C)CC1` [Vandetanib], in data set [1], the GI50 was 68.7 nM.
As to “CACAUGUCAUCAAAUUGUATT (CACAUGUCAUCAAAUUGUANN; listed as RNA, chemistry not given here) [RET siRNA1, siRNA targeting human RET]”, in data set [3], the “expression of the DCTN1-RET fusion protein” value is “inhibited”. Further, the “growth: number of cells on day 4 relative to day 0” value in data set [4] is reported as “about 2.0 times”.
The corresponding values for “CCACUGCUACCACAAGUUUTT (CCACUGCUACCACAAGUUUNN; listed as RNA, chemistry not given here) [RET siRNA3, siRNA targeting human RET]” are “not inhibited” and 3.7 times.
Turning to “GGAUUGAAAACAAACUCUATT (GGAUUGAAAACAAACUCUANN; listed as RNA, chemistry not given here) [RET siRNA2, siRNA targeting human RET]”, the “expression of the DCTN1-RET fusion protein” value in data set [3] is given as “inhibited”. Further, the “growth: number of cells on day 4 relative to day 0” value in data set [4] is around 2.4 times.

These data come from patent publication US12258376B2, “Fusion protein of DCTN1 protein with RET protein” (TAIHO PHARMACEUTICAL CO., LTD., priority 2017, dated 2025).
